Source: US12643910B2, “Substituted pyrazolo[3,4-b]pyridines as ectonucleotide pyrophosphatase/phosphodiesterase 1 (ENPP1) modulators” (SANFORD BURNHAM PREBYS MEDICAL DISCOVERY INSTITUTE, priority 2019, dated 2026)

Key:
ENPP3 = target: T1, ENPP3 (Homo sapiens, UniProt O14638); experiment: ENPP3 Km ATP assay; type: biochemical; conditions: ATP at Km
T1 sequence (O14638 1-875): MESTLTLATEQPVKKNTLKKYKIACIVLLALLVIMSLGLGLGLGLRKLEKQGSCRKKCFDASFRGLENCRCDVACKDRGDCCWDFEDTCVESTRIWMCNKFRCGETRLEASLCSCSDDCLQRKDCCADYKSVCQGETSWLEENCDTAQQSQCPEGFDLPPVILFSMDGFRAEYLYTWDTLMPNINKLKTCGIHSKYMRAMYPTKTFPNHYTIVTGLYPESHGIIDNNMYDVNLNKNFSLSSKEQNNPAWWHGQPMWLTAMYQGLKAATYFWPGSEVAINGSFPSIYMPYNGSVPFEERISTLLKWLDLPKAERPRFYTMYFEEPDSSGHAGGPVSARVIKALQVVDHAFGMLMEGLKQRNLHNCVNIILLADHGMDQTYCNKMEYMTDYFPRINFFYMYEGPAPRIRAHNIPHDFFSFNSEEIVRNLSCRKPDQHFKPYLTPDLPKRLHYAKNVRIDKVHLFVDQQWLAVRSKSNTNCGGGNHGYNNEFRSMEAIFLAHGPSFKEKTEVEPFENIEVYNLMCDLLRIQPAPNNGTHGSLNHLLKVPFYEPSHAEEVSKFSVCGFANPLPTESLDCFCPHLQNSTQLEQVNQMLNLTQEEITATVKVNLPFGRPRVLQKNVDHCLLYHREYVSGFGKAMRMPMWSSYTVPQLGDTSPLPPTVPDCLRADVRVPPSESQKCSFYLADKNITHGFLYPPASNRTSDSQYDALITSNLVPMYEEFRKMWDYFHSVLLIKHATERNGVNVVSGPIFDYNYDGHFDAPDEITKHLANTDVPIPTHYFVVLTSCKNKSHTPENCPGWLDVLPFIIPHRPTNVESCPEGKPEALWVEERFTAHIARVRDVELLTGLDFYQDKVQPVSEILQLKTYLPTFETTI

human ENPP1 = target: T2, human ENPP1 (Homo sapiens, UniProt P22413); experiment: ENPP1 assay with ATP substrate (Transcreener AMP2/GMP2 TR-FRET); type: biochemical; conditions: 1 hour at room temperature
T2 construct: made in house
T2 sequence (P22413 1-925): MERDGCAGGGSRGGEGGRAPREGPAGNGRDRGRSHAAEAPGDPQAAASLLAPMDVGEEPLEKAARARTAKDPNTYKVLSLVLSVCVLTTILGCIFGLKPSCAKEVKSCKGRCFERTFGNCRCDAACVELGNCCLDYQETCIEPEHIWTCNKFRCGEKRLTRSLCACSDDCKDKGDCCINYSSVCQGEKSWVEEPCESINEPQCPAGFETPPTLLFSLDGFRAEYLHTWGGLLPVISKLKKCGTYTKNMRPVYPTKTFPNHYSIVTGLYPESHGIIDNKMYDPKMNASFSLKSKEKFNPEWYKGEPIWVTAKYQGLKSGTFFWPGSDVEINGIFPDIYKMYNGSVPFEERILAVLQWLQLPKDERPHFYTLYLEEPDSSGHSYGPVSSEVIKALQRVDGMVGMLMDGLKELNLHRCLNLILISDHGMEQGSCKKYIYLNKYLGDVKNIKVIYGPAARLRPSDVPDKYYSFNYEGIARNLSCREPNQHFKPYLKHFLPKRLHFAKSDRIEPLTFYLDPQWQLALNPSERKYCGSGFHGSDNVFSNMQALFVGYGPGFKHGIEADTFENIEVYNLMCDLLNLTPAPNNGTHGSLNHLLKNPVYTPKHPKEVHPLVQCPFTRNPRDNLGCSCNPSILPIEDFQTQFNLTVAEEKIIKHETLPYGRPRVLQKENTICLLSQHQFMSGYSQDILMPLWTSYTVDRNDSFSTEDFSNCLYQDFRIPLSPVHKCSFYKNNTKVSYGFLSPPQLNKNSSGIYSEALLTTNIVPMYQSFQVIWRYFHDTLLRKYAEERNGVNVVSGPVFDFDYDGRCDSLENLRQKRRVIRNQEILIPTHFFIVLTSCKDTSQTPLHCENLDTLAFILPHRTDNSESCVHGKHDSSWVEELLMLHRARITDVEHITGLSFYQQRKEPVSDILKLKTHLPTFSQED
Text: Example B1: ENPP1 Assay with ATP Substrate
Ectonucleotide pyrophosphatase/phosphodiesterase 1 (ENPP1) hydrolyzes ATP, breaking it down into 5′-AMP and pyrophosphate. The 5′-AMP formed from the reaction is detected by Transcreener® AMP2/GMP2 TR-FRET Assay (Bellbrook), containing AMP-tracer (HiLyte 647) and anti-AMP Terbium (Tb) donor. 5′-AMP generated in the reaction competes with AMP-tracer for binding with Anti-AMP Tb donor, and decreases TR-FRET signal.
Different concentrations of ENPP1 inhibitors are added to dry assay plate, followed by 2 μl 300 nM ATP. The reaction is initiated with the addition of 2 μl 8.5 μM human ENPP1 (generated by SBP Protein group). The assay reaction mixture contains a buffer of 50 mM Tris, pH 7.5, 1 mM TCEP, 2 mM MgCl2, 0.005% Tween 20, and 1% DMSO. The reaction is stopped after 1 hour at room temperature by adding 2 μL of 2 nM AMP-tracer and 2 μl of 2 nM Anti-AMP Tb donor in the 50 mM Tris, pH 7.5, buffer containing 20 mM EDTA and 0.1% Prionex. After 2 hour additional incubation at room temperature, the generated signal is measured using BMG Lab PHERASTAR instrument. 100% activity control samples (containing enzyme, substrate, buffer: MAX) and no enzyme control samples (containing substrate and buffer: MIN) are utilized to calculate percent inhibition (%) for each compound concentration well (COMPOUND) as follows.
The IC50 values are determined by fitting the inhibition curves with 2-parameter variable slope model in Graphpad Prism software using percent inhibition vs compound concentration data: […]

Cc1nc(NCc2ccc(S(N)(=O)=O)cc2)c2c(-c3ccccc3)csc2n1 [Example 1.44, 4-(((2-Methyl-5-phenylthieno[2,3-d]pyrimidin-4-yl)amino)methyl)benzenesulfonamide]
IC50 (ENPP3): < 0.1 µM | IC50 (human ENPP1): < 0.1 µM

COCCN(C)c1nc(NCc2ccc(S(N)(=O)=O)cc2)c2c(-c3ccccc3)csc2n1 [Example 1.55, 4-((2-(N-Methyl-N-(2-methoxyethyl)amino)-5-phenylthieno[2,3-d]pyrimidin-4-yl)aminomethyl)benzenesulfonamide]
IC50 (ENPP3): 0.1 to 1 µM | IC50 (human ENPP1): < 0.1 µM

c1ccc(-c2csc3nc(-c4ccccn4)nc(NCc4ccncc4)c23)cc1 [Example 1, 5-Phenyl-2-(pyridin-2-yl)-N-(pyridin-4-ylmethyl)thieno[2,3-d]pyrimidin-4-amine]
IC50 (ENPP3): > 20 µM | IC50 (human ENPP1): 0.1 to 1 µM

Cn1ncc2c(N3CCC(NCCCc4ccc(F)cc4)CC3)ncnc21 [Example 3.50, N-(3-(4-Fluorophenyl)propyl)-1-(1-methyl-1H-pyrazolo[3,4-d]pyrimidin-4-yl)piperidin-4-amine]
IC50 (ENPP3): > 20 µM | IC50 (human ENPP1): > 20 µM

NS(=O)(=O)c1ccc(CNc2nc(NCCO)nc3scc(-c4ccccc4)c23)cc1 [Example 1.50, 4-((2-(2-Hydroxyethylamino)-5-phenylthieno[2,3-d]pyrimidin-4-yl)aminomethyl)-benzenesulfonamide]
IC50 (ENPP3): < 0.1 µM | IC50 (human ENPP1): < 0.1 µM

NS(=O)(=O)c1ccc(CNc2ncnc3scc(-c4ccccc4)c23)cc1 [Example 1.46, 4-(((5-Phenylthieno[2,3-d]pyrimidin-4-yl)amino)methyl)benzenesulfonamide]
IC50 (ENPP3): < 0.1 µM | IC50 (human ENPP1): < 0.1 µM

CC(Nc1ncnc2scc(-c3ccccc3)c12)c1ccc(S(N)(=O)=O)cc1 (stereo not shown) [Example 1.65, 4-(1-(5-Phenylthieno[2,3-d]pyrimidin-4-yl)aminoethyl)benzenesulfonamide]
IC50 (ENPP3): 1 to 20 µM | IC50 (human ENPP1): 1 to 20 µM

CN(C)c1nc(NCc2ccc(S(N)(=O)=O)cc2)c2cnn(C)c2n1 [Example 2.28, 4-(((6-(Dimethylamino)-1-methyl-1H-pyrazolo[3,4-d]pyrimidin-4-yl)amino)methyl)-benzenesulfonamide]
IC50 (ENPP3): 0.1 to 1 µM | IC50 (human ENPP1): 1 to 20 µM

Cn1nc(Br)c2c(NCc3ccc(S(N)(=O)=O)cc3)nc(Cl)nc21 [Example 2.87, 4-((3-Bromo-6-chloro-1-methyl-1H-pyrazolo[3,4-d]pyrimidin-4-yl)aminomethyl)-benzenesulfonamide]
IC50 (ENPP3): < 0.1 µM | IC50 (human ENPP1): < 0.1 µM

Cn1ncc2c(NCc3ccc(S(N)(=O)=O)cc3)nc(N3CCOCC3)nc21 [Example 2.29, 4-(((1-Methyl-6-morpholino-1H-pyrazolo[3,4-d]pyrimidin-4-yl)amino)methyl)-benzenesulfonamide]
IC50 (ENPP3): 0.1 to 1 µM | IC50 (human ENPP1): > 20 µM

CCn1ncc2c(NCc3ccc(S(N)(=O)=O)cc3)ccnc21 [Example 2.122, 4-((1-Ethyl-1H-pyrazolo[3,4-b]pyridin-4-yl)aminomethyl)benzenesulfonamide]
IC50 (ENPP3): 1 to 20 µM | IC50 (human ENPP1): < 0.1 µM

COc1cc(S(N)(=O)=O)ccc1CNc1ccnc2c1cnn2C [Example 2.63, 3-Methoxy-4-(((1-methyl-1H-pyrazolo[3,4-b]pyridin-4-yl)amino)methyl)benzenesulfonamide]
IC50 (ENPP3): 1 to 20 µM | IC50 (human ENPP1): 0.1 to 1 µM

Cc1nn(C)c2ncnc(NCc3ccc(S(N)(=O)=O)cc3)c12 [Example 2.45, 4-(((1,3-Dimethyl-1H-pyrazolo[3,4-d]pyrimidin-4-yl)amino)methyl)benzenesulfonamide]
IC50 (ENPP3): 0.1 to 1 µM | IC50 (human ENPP1): 0.1 to 1 µM

Cc1csc2c(N3CCC(NCCCc4ccncc4)CC3)nc(-c3ccccn3)nc12 [Example 3.56, 1-(7-Methyl-2-(pyridin-2-yl)thieno[3,2-d]pyrimidin-4-yl)-N-(3-(pyridin-4-yl)propyl)piperidin-4-amine]
IC50 (ENPP3): > 20 µM | IC50 (human ENPP1): > 20 µM

NS(=O)(=O)c1ccc(CNc2nc(-c3cccnc3)nc3scc(-c4ccccc4)c23)s1 [Example 1.30, 5-(((5-Phenyl-2-(pyridin-3-yl)thieno[2,3-d]pyrimidin-4-yl)amino)methyl)thiophene-2-sulfonamide]
IC50 (ENPP3): > 20 µM | IC50 (human ENPP1): 1 to 20 µM

Cc1cc(CNc2nc(-c3ccccn3)nc3scc(-c4ccccc4)c23)ccc1S(N)(=O)=O [Example 1.19, 2-Methyl-4-(((5-phenyl-2-(pyridin-2-yl)thieno[2,3-d]pyrimidin-4-yl)amino)methyl)-benzenesulfonamide]
IC50 (ENPP3): 0.1 to 1 µM | IC50 (human ENPP1): < 0.1 µM

CCOc1nc(NCc2ccc(S(N)(=O)=O)cc2)c2c(Br)nn(C)c2n1 [Example 2.97, 4-((3-Bromo-6-ethoxy-1-methyl-1H-pyrazolo[3,4-d]pyrimidin-4-yl)aminomethyl)-benzenesulfonamide]
IC50 (ENPP3): < 0.1 µM | IC50 (human ENPP1): < 0.1 µM

Cn1ncc2c(NCc3ccc(S(N)(=O)=O)cn3)ncnc21 [Example 2.53, 6-(((1-Methyl-1H-pyrazolo[3,4-d]pyrimidin-4-yl)amino)methyl)pyridine-3-sulfonamide]
IC50 (ENPP3): > 20 µM | IC50 (human ENPP1): 0.1 to 1 µM

Cc1cnccc1CCC(=O)NC1CCN(c2ncnc3c(C)csc23)CC1 [Example 3.34, 3-(3-Methylpyridin-4-yl)-N-(1-(7-methylthieno[3,2-d]pyrimidin-4-yl)piperidin-4-yl)propanamide]
IC50 (ENPP3): > 20 µM | IC50 (human ENPP1): > 20 µM

Cn1ncc2c(NCc3ccc(S(N)(=O)=O)cc3Cl)ccnc21 [Example 2.61, 3-Chloro-4-(((1-methyl-1H-pyrazolo[3,4-b]pyridin-4-yl)amino)methyl)benzenesulfonamide]
IC50 (ENPP3): 0.1 to 1 µM | IC50 (human ENPP1): 0.1 to 1 µM

Cc1cc(S(N)(=O)=O)ccc1CNc1nc(-c2ccccn2)nc2scc(-c3ccccc3)c12 [Example 1.15, 3-Methyl-4-(((5-phenyl-2-(pyridin-2-yl)thieno[2,3-d]pyrimidin-4-yl)amino)methyl)-benzenesulfonamide]
IC50 (ENPP3): 0.1 to 1 µM | IC50 (human ENPP1): 0.1 to 1 µM

Cc1ccncc1CCCNC1CCN(c2nc(Cl)nc3c(C)csc23)CC1 [Example 3.68, 1-(2-Chloro-7-methylthieno[3,2-d]pyrimidin-4-yl)-N-(3-(4-methylpyridin-3-yl)propyl)piperidin-4-amine]
IC50 (human ENPP1): 1 to 20 µM
